# In patent US20070099851A1, “Stable analogues of ribose-1-phosphate and methods for treating diabetes and other metabolic disorders” (priority 2004, published 2007):
# Like-named read-outs stand apart in the source and are kept apart here. Marks after values point to notes of the source that are not given here.
# Columns and labels:
# [1] = target: T1, human purine nucleoside phosphorylase (Homo sapiens, UniProt P00491); conditions: background statement; cited from earlier work
# T1 sequence (P00491 1-289): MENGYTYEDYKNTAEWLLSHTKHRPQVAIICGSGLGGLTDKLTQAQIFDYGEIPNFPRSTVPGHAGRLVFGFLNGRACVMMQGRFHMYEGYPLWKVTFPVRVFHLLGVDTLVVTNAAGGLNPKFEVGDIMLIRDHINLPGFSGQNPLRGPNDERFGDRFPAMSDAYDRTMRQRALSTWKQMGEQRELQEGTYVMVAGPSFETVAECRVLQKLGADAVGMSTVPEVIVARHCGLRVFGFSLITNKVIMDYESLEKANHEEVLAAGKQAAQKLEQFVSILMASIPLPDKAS
# Zucker (fa/fa) rats = test: Glucose tolerance test in diabetic Zucker (fa/fa) rats; type: in vivo, rat; conditions: for Blood Glucose at 120 minutes: fasted Zucker (fa/fa) rats, IP glucose 1.5 g/kg
# Experimental: Thirty-six 16 wk old male Zucker (fa/fa) rats were randomly assigned to one of the following groups: • 1. Vehicle (0.9% NaCl) • 2. Metformin—320 mg/kg • 3. Compound 1.1—10 mg/kg Acid • 4. Compound 1.1—100 mg/kg Acid • 5. Compound 3.1—10 mg/kg Ester • 6. Compound 3.1—100 mg/kg Ester
# Animals were fasted for 16-18 hr and lightly anesthetized with a mixture of ketamine/xylazine at a dose of 0.5 ml/kg (45 mg/kg ketamine, 5 mg/kg xylazine). Animals received their respective treatments via IP injection (1.5 ml/kg) followed by an IP injection of glucose at 1.5 g/kg. Blood glucose was measured at 0, 30, 60, 90, and 120 minutes post-glucose.
# HL-60, Leukemia = test: Anticancer activity, HL-60; type: cell-based
# 6-phosphofructo-1-kinase [2] = conditions: background statement; cited from earlier work
# FAO hepatoma cells [3] = conditions: background statement; cited from earlier work
# 6-phosphofructo-1-kinase [4] = test: Activation of 6-phosphofructo-1-kinase; type: biochemical; conditions: for Ka: concentration giving half-maximal activation
# Description: (§1) Studies of Compound 2 have shown that it activates 6-phosphofructo-1-kinase (6PF1K) and inhibits fructose-1,6-bisphosphatase (FBPase). […] It is well known that by increasing the rate of glycolysis, the rate of gluconeogenesis decreases (Hanson et al. (1984) J. Biol. Chem. 259, 218-223).
# Ka is the concentration of substrate giving half-maximal activation.
# FAO hepatoma cells [5] = test: Inhibition of glucose production in FAO cells; type: cell-based; conditions: for Percent inhibition of glucose production: FAO cells
# Description: as §1
# [6] = target: T2, Fructose-1,6-bisphosphatase (Homo sapiens, UniProt P09467); test: Inhibition of fructose-1,6-bisphosphatase; type: biochemical
# T2 sequence (P09467 2-338 limits assumed): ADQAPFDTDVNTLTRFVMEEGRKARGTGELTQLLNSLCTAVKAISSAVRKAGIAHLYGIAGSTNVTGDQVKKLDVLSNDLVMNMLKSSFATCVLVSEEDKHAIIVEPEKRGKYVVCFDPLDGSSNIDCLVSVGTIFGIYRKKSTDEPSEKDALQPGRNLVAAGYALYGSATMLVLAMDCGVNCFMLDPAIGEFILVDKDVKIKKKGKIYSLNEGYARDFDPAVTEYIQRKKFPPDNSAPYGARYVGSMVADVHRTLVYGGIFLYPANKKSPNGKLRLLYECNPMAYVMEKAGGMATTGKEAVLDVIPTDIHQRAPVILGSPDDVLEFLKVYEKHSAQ
# Description: as §1
# [7] = target: T2, Fructose-1,6-bisphosphatase; conditions: background statement; cited from earlier work
# [8] = test system: INS-1 clonal pancreatic B-cells; test: Stimulation of insulin secretion in INS-1 cells; type: cell-based; conditions: for Insulin release greater compared to controls: 3 mM glucose, 500 μM compound, overnight; for Activating effect on insulin release, in words: 16 mM glucose
# Experimental: INS-1 clonal pancreatic B-cells were grown in well plates or T-25 flasks incubated overnight with INS-1 cell media with 3 mM glucose and 500 μM of compound 3 or compound 4. Insulin samples were collected for 10 minutes at 18 second intervals. Insulin release was greater for both compound 3.1 and compound 4.1 compared to controls, by about 50 percent, under these conditions. At 16 mM glucose the activating effect disappeared.
# Rh1, Ewing Sarcoma = test: Anticancer activity, Rh1; type: cell-based
# HTC hepatoma cells = test: Inhibition of intracellular lipid synthesis in HTC hepatoma cells; type: cell-based; conditions: 500 μM; for Cholesterol: control 48; for Triglyceride: control 60
# [9] = target: T3, calf spleen purine nucleoside phosphorylase (Bos taurus, UniProt P55859); test: Inhibition of calf spleen purine nucleoside phosphorylase (cPNP); type: biochemical; conditions: for cPNP activity: 27 μM compound
# T3 construct: from tissue; host or cells: calf spleen
# T3 sequence (P55859 1-289): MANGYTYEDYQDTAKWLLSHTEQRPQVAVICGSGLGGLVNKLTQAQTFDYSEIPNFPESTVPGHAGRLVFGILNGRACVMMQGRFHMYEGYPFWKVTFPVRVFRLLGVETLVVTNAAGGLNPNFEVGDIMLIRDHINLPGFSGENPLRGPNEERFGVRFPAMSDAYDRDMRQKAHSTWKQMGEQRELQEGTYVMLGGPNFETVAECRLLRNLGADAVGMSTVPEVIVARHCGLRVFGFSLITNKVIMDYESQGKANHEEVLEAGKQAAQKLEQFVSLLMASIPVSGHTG
# Experimental: Compound 4.1 (27 μM) was incubated with calf spleen purine nucleoside phosphorylase with increasing concentrations of inorganic phosphate.
structure (smiles),measurement,setting,value
O=P(O)(O)OC1O[C@H](CI)[C@@H](O)[C@H]1O (stereo partly shown) [5-iodo-ribose-1-phosphate],"Effect on human purine nucleoside phosphorylase, in words",[1],inhibits
"O=P(O)(O)CC1OC(CO)C(O)C1O (stereo not shown) [Compound 1.1, ribose-1-methylenephosphonate]",Blood Glucose at 120 minutes,Zucker (fa/fa) rats; 10 mg/kg IP,460 mg/dL
same,Blood Glucose at 120 minutes,Zucker (fa/fa) rats; 100 mg/kg IP,400 mg/dL
same,"Effect on blood glucose levels, in words","Zucker (fa/fa) rats; fasted diabetic Zucker (fa/fa), injected, glucose challenge",reduce blood glucose levels
same,IC50,"HL-60, Leukemia",170 µM
"O=P(O)(O)CC1OC(COP(=O)(O)O)C(O)C1O (stereo not shown) [Compound 2.1, 5-phosphoribosyl-1-methylenephosphonate]",Ka,6-phosphofructo-1-kinase [2],6.5 µM
same,"Glucose production in cultured hepatoma cells (FAO), in words",FAO hepatoma cells [3],inhibit glucose production
same,"Effect on 6-phosphofructo-1-kinase (6PF1K), in words",6-phosphofructo-1-kinase [4],activates
same,Ka,6-phosphofructo-1-kinase [4],6.5 µM
same,Blood Glucose at 120 minutes,Zucker (fa/fa) rats; 10 mg/kg IP,500 mg/dL
same,Blood Glucose at 120 minutes,Zucker (fa/fa) rats; 100 mg/kg IP,500 mg/dL
same,Percent inhibition of glucose production,FAO hepatoma cells [5]; 60 μM,20 ± 15%
same,Percent inhibition of glucose production,FAO hepatoma cells [5]; 100 μM (last row of the table),60 ± 15%
same,Percent inhibition of glucose production,FAO hepatoma cells [5]; 125 μM,35 ± 10%
same,Percent inhibition of glucose production,FAO hepatoma cells [5]; 250 μM,40 ± 10%
same,Percent inhibition of glucose production,FAO hepatoma cells [5]; 500 μM,35 ± 10%
same,"Glucose production in FAO hepatoma cells, in words",FAO hepatoma cells [5]; incubated with FAO hepatoma cells,inhibits glucose production
same,"Effect on fructose-1,6-bisphosphatase (FBPase), in words",[6],inhibits
same,Ki,"[6]; At 5 μM Fru-1,6-bisphosphate",87 µM
same,Maximum Decrease in Activity,"[6]; At 5 μM Fru-1,6-bisphosphate",50%
same,Ki,"[6]; At 20 μM Fru-1,6-bisphosphate",87 µM
same,Maximum Decrease in Activity,"[6]; At 20 μM Fru-1,6-bisphosphate",50%
same,Ki,[7],85 µM
"CCOP(=O)(CC1OC(CO)C(O)C1O)OCC (stereo not shown) [Compound 3.1, ribose-1-methylenediethylphosphonate]",Insulin release greater compared to controls,[8],about 50%
same,"Activating effect on insulin release, in words",[8],disappeared
"O=P(O)(O)C(F)(F)C1OC(CO)C(O)C1O (stereo not shown) [Compound 4.1, ribose-1-difluoromethylenephosphonate]",IC50,"Rh1, Ewing Sarcoma",170 µM
same,Insulin release greater compared to controls,[8],about 50%
same,"Activating effect on insulin release, in words",[8],disappeared
same,Cholesterol,HTC hepatoma cells,39 μg/mg protein
same,Triglyceride,HTC hepatoma cells,44 μg/mg protein
same,Decrease in cholesterol levels compared to control,HTC hepatoma cells; overnight,~20%
same,Decrease in triglyceride levels compared to control,HTC hepatoma cells; overnight,26%
same,cPNP activity,"[9]; Pi 20 μM, control 170",18* arbitrary units
same,cPNP activity,"[9]; Pi 50 μM, control 237",31 arbitrary units
same,cPNP activity,"[9]; Pi 200 μM, control 298",96 arbitrary units
same,cPNP activity,"[9]; Pi 1500 μM, control 327",176 arbitrary units
same,"Mode of inhibition of cPNP, in words","[9]; 27 μM, increasing inorganic phosphate",likely a competitive inhibitor of cPNP
"CN(C)C(=N)N=C(N)N [Metformin, reference compound]",Blood Glucose at 120 minutes,Zucker (fa/fa) rats; 320 mg/kg IP,400 mg/dL
same,Cholesterol,HTC hepatoma cells,38 μg/mg protein
same,Triglyceride,HTC hepatoma cells,42 μg/mg protein
"O=P(O)(O)OC[C@H]1O[C@@](CO)(OP(=O)(O)O)[C@@H](O)[C@@H]1O [fructose-2,6-bisphosphate, reference compound]",Ka,6-phosphofructo-1-kinase [4],0.09 µM
"O=P(O)(O)OC[C@H]1OC(OP(=O)(O)O)[C@H](O)[C@@H]1O (stereo partly shown) [ribose-1,5-bisphosphate, reference compound]",Ka,6-phosphofructo-1-kinase [4],3.5 µM
same,Ki,"[6]; At 5 μM Fru-1,6-bisphosphate",87 µM
same,Maximum Decrease in Activity,"[6]; At 5 μM Fru-1,6-bisphosphate",50%
same,Ki,"[6]; At 20 μM Fru-1,6-bisphosphate",87 µM
same,Maximum Decrease in Activity,"[6]; At 20 μM Fru-1,6-bisphosphate",50%
